How the values were obtained:
[1] = test system: cloned DNA polymerase I (genetically engineered to eliminate 3′-5′ exonuclease activity, 5′-3′ exonuclease activity and discrimination against …); assay: Rates of incorporation of dTPn-DDAO (n=3 or 4) by DNA polymerase; format: biochemical; conditions: 1 μM nucleotide, 100 nM primer annealed to template, shrimp alkaline phosphatase, 23° C., FIG. 2
Experimental: (§1) Reactions were assembled at room temperature (23° C.) using the deoxynucleotides of Example (1–5). Reactions contained primer template combinations having a single oligonucleotide primer (represented by SEQ ID NO: 1) annealed to an oligonucleotide template corresponding to SEQ ID NO: 2.
(§2) Reaction conditions: A 70 μl reaction containing 50 mM Tris, pH 8.0, 5% glycerol, 5 mM MgCl2, 0.01% tween-20, 0.25 units shrimp alkaline phosphatase, 100 nM primer annealed to template, and 1 μM ddTPn-DDAO was assembled in a quartz fluorescence ultra-microcuvet in a LS-55 Luminescence Spectrometer (Perkin Elmer), operated in time drive mode. Excitation and emission wavelengths are 620 nm and 655 nm respectively. Slit widths were […] for excitation slits, 15 nm for emission slits. The reaction was initiated by the addition of 0.35 μl (11 units) of a cloned DNA polymerase I (genetically engineered to eliminate 3′-5′ exonuclease activity, 5′-3′ exonuclease activity and discrimination against dideoxynucleotides) or MMLV reverse transcriptase, and 0.25 mM MnCl2.

[2] = biological target: T1, MMLV reverse transcriptase (Moloney murine leukemia virus, UniProt P03355); assay: Rates of incorporation of dTPn-DDAO (n=3 or 4) by reverse transcriptase; format: biochemical; conditions: 1 μM nucleotide, 100 nM primer annealed to template, shrimp alkaline phosphatase, 23° C., FIG. 2
T1 construct: MMLV reverse transcriptase
Experimental: as §1, §2

For `Cc1cn([C@H]2CC(O)[C@@H](COP(=O)(O)OP(=O)(O)OP(=O)(O)OP(=O)(O)Oc3ccc4c(c3)C(C)(C)C3=C(Cl)C(=O)C(Cl)=CC3=N4)O2)c(=O)[nH]c1=O` (some centres unmarked) [dT4P-DDAO, δ-9H(1,3-dichloro-9,9-dimethylacridin-2-one-7-yl)-deoxythymidine-5′-tetraphosphate], the rate of incorporation [1] was “significantly higher than that of dT3P-DDAO” and the rate of incorporation [2] was “significantly higher than that of dT3P-DDAO”.
